# Target: T1, Pancreatic triacylglycerol lipase (Sus scrofa, UniProt P00591)
# T1 sequence (P00591 whole entry): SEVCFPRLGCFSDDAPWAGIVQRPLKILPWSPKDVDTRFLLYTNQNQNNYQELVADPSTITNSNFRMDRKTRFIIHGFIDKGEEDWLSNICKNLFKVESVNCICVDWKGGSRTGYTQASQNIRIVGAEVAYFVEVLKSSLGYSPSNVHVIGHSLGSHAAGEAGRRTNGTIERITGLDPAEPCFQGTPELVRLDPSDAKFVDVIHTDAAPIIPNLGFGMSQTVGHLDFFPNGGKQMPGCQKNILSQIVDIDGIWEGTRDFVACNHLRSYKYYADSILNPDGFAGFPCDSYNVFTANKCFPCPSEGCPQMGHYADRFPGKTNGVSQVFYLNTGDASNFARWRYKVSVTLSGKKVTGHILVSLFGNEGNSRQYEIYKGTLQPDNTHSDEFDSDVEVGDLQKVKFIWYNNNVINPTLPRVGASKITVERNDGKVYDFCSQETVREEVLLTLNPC
# Assay: Inhibition of porcine pancreatic lipase using p-nitrophenyl butyrate as substrate assessed as formation of p-nitrophenol preincubated for 10 mins followed by substrate addition by spectrophotometric method
row,IC50 [µM],SMILES
1,0.57,COc1cc(O)cc(-c2cc3ccc(O)cc3o2)c1C/C=C(/C)CC/C=C(/C)CCC=C(C)C
2,0.39,CC(C)=CCC/C(C)=C\CC/C(C)=C\Cc1c(O)cc(O)c(CC=C(C)C)c1-c1cc2ccc(O)cc2o1
3,0.7,CC(C)=CCC/C(C)=C\CC/C(C)=C\Cc1c(O)cc(O)cc1-c1cc2ccc(O)cc2o1 [MULBERROFURAN W]
4,0.92,COc1cc(O)cc(-c2cc3ccc(O)c(C/C=C(/C)CCC=C(C)C)c3o2)c1CC=C(C)C
5,0.85,COc1cc(O)cc(/C=C/c2ccc(O)cc2)c1C/C=C(/C)CCC=C(C)C
6,0.48,CC(C)=CCC/C(C)=C\Cc1c(O)ccc2cc(-c3cc(O)c4ccoc4c3)oc12
7,0.71,CC(C)=CCCC(C)=CCc1c(O)cc2c(c1O)C(=O)C[C@@H](c1ccc(O)c(CC=C(C)C)c1O)O2
8,0.76,CC(C)=CCCC1(C)C=Cc2c(O)cc(-c3cc4ccc(O)cc4o3)cc2O1 (centres undefined)
9,0.09,CC(C)=CCC/C(C)=C/Cc1c(O)ccc2cc(-c3cc(O)cc(O)c3CC=C(C)C)oc12 [MULBERROFURAN D]

# Reference: ChEMBL document CHEMBL3797192, “Potential pancreatic lipase inhibitory activity of phenolic constituents from the root bark of Morus alba L” (Bioorg Med Chem Lett, 2016)
